Data set [1] deals with T1, CYP3A4 (Homo sapiens, UniProt P08684).
T1 construct: from tissue; host or cells: pooled human liver microsomes
In words: CYP-450 interaction study in pooled human liver microsomes, CYP3A4. It counts as in vitro ADME. The settings on record: 1 μM. The protocol: CYP-450 interaction studies were conducted in pooled human liver microsomes (FIG. 8). CYP-450 inhibition (%) by compound (II-4) (1 μM) was compared to control inhibitors (1 μM) for the most common CYP-450 isoforms, CYP3A4, CYP2C9, CYP2D6, CYP2C19, and CYP1A2.
CYP-450 interaction studies were conducted in pooled human liver microsomes (FIG. 24). CYP-450 inhibition (%) by compound (II-4) (1 μM) was compared to control inhibitors (1 μM) for the most common CYP-450 isoforms, 3A4, 2C9, 2D6, 2C19, and 1A2.
On the technique in general: Liver microsomes are a subcellular fraction often used to study metabolism.

Data set [2] concerns FAK (Y397, Y576/577, Y925). Kind of data set: Western blot of VEGF-induced FAK phosphorylation in REC. It counts as cell-based, human. The settings on record: REC under VEGF; compound (II-4) 500 nM, SU6656 1 μM. On the procedure: REC, Mel 270, OMM 2.5 under Hepatocyte Growth Factor (HGF) or Vascular Endothelial Growth Factor (VEGF) stimulation conditions: Cell lysates were collected in RIPA lysis buffer (50 mM Tris-HCl, pH 7.4, 150 mM NaCl, 2 mM EDTA, 1% Nonidet P-40, 0.1% SDS) with protease 1× inhibitor cocktail (Roche; Indianapolis, Ind.). Lysates were kept on ice and centrifuged at 10,000×g×10 minutes and total protein was measured using the BCA assay (Pierce, Rockford, Ill.). Protein samples were mixed with 4×LDS loading buffer with 2.5% 2-mercaptoethanol (Sigma-Aldrich), heated to 70° C. for 10 minutes, and loaded on NuPAGE 4-12% Bis-Tris gel (Invitrogen, Carlsbad, Calif.). Immunoblotting was performed with nitrocellulose membranes (Bio-Rad, Hercules, Calif.) at 170-mA start and 110-mA end at 25 V for two hours in NuPAGE transfer buffer (Invitrogen) containing 20% methanol. Membranes were blocked using Odyssey blocking buffer (LI-COR; Lincoln, Nebr.) for one hour at room temperature with gentle shaking Membranes were then incubated at 4° C. with specific primary antibodies (1:1000) overnight. Cellular protein was normalized using rabbit-GAPDH or mouse-α-Tubulin [1:20,000] (Cell Signaling, Danvers, Mass.; LI-COR, respectively). […] Dual-channel infrared scan and quantitation of immunoblots were conducted using the ODYSSEY Sa infrared imaging system with Image Studio (Ver. 3.1.4) (LI-COR). […]
For orientation: Immunoblotting shows a protein as a band on a membrane.

Data set [3] relates to retinal endothelial cells (REC). In words: REC attachment assay. Particulars: increasing concentrations (100 nM to 1 μM), six hours. It counts as cell-based, human. The source says: Adhesive interactions with extracellular matrix proteins rely on focal adhesion proteins engaging with integrins to strengthen and maintain cell contacts. In the transwell migration assay system, initial cell-attachment to the porous membrane was relied upon in order to obtain a measure of cells that have migrated through to the underside of the well. Since compound (II-4) was in direct contact with cells prior to being seeded onto the transwell membranes, the potential of compound (II-4) to impede the attachment of RECs to the membranes was investigated. […] However, investigation of integrin-mediated signaling may be of interest to further evaluate and characterize compound (II-4)'s potential role in disrupting cross-talk between growth-factor and integrin-mediated signaling during pathological retinal angiogenesis.
FIG. 19: REC attachment assay. Increasing concentrations of compound (II-4) with suspended RECs were seeded to 96-wells to investigate inhibition of REC-adherence to attachment-factor surfaces. […] (P>0.05; n=8).

“Also recorded” adds a separate entry of the source.

T1 sequence (P08684 whole entry): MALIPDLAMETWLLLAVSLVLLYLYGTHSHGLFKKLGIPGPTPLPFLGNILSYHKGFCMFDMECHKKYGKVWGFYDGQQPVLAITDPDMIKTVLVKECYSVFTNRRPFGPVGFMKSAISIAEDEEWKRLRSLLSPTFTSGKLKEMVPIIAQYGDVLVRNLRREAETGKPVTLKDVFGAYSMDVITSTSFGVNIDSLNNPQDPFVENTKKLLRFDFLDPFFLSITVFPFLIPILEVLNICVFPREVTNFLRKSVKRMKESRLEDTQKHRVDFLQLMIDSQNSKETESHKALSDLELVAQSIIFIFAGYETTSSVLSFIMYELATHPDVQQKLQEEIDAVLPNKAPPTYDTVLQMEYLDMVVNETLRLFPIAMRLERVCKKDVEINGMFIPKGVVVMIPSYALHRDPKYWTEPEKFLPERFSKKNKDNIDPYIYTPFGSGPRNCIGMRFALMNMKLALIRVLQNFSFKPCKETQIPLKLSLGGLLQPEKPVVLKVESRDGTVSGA

As to `COc1cc(C2OC(=O)Nc3c2ccc2ccccc32)cc(OC)c1OC` (stereo not drawn) [compound II-4], the “CYP-450 inhibition, CYP3A4” value in data set [1] was “lack of significant inhibition; also recorded: lacks significant inhibition”. Moreover, the “VEGF-induced FAK activation (Y397, Y925)” value in data set [2] is “independent of both FAK Y397 autophosphorylation and Src-driven FAK Y925; also recorded: not FAK Y925 activation”. Further, the “attachment of RECs to attachment-factor coated wells” value in data set [3] is recorded as “did not impede the attachment”.
